This test deals with T1, 15-hydroxyprostaglandin dehydrogenase [NAD(+)] (Homo sapiens, UniProt P15428).
T1 sequence (P15428 whole entry): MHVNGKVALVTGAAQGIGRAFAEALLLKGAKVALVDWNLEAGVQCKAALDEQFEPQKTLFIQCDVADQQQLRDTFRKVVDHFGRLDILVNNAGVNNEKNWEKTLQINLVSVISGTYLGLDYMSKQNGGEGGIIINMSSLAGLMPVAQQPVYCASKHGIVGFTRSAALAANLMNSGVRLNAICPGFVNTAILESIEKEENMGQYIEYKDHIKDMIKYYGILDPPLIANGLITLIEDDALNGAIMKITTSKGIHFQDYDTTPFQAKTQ
The test can be described thus: Inhibitory Activity Assay: To confirm whether the compounds according to the present disclosure have an effect of inhibiting 15-PGDH, the NADH, which appears at the wavelength of 340 nm, of Compounds 1 to 105 purified in (1) nm was measured by using fluorescence spectra photometer. That is, the cells were treated with a solution including 50 mM Tris-HCl (pH 7.5), 0.1 mM DTT, 0.25 mM (NAD+), 10 μg of purified 15-PGDH enzyme, 21 μM PGE2. and various concentrations (0.0001 μM to 64 μM) of the derivative compound according to the present disclosure. In this case, the total volume of the solution was 2 ml. Then, the absorbance of the reaction mixture was recorded at the wavelength of 340 nm. To measure the activity of the derivative compounds according to the present disclosure, which is an inhibitor of 15-PGDH, the average value of NADH absorbance at 340 nm at various concentrations was obtained from a standard curve. The results of the 15-PGDH inhibitory activity of the derivative compounds according to the present disclosure are shown in Tables 1 and 2 below.

Usually IC50 stands for the concentration that inhibits the measured activity by half. Consider `O=C1NC(=O)/C(=C/c2ccc(OC(=O)C3CCC3)cc2)S1`, for which the IC50 is 431 nM.

On to `O=C(CCC1CCCC1)Oc1ccc(/C=C2\SC(=O)NC2=O)c(Cl)c1`, for which the IC50 was 50.8 nM.

Take `O=C1NC(=O)/C(=C/c2ccc(OC(=O)c3ccccc3)cc2)S1`: the IC50 was 124 nM.

(Values after ChEMBL document CHEMBL5727979, “Thiazolidinedione derivative and use thereof” (2020).)
